Results on one compound are retold here after US20130046098A1, “KINASE INHIBITORS” (THE UNIVERSITY OF MANCHESTER, priority 2009, published 2013).

“Also recorded” adds a separate entry of the source.

In one data set the target is ROCK2 (Homo sapiens, UniProt O75116). The experiment in a line: SelectScreen additional single point analysis. To be noted: 10 μM.
Another data set deals with HGK (MAP4K4) (Homo sapiens, UniProt O95819). Description: SelectScreen in vitro kinase profiling, single point.
Another data set concerns the target p38 alpha (MAPK14) (Homo sapiens, UniProt Q16539). The data set is described as above.
Data set [1] relates to GEF16 transformed NIH3T3 cells. Description: Flow cytometry of DNA content (cell cycle, sub G1). Type of data set: cell-based, mouse. The protocol: NIH3T3 cells with or without drug treatments (with Y27632 or the compounds of the invention) were harvested at various time points and cell counts carried out to confirm that 1×10^6 cells were present for each cytometric analysis. Cells were washed with PBS, fixed with 70% ice-cold ethanol, pelleted and DNA stained by incubating the cells with propidium iodide ([…]) (Sigma-Aldrich, Poole, UK) at 4° C. for 45 min. Cells were then washed twice with ice-cold PBS and resuspended in 400 μl of PBS. The DNA content during different phases of the cell cycle was then determined by flow cytometry (BD Biosciences, Oxford, UK). Each profile shown was representative of three separate experiments.
Background: A flow cytometer gives signals particle by particle.

Another data set has as its target T1, Aurora A (Homo sapiens, UniProt O14965).
T1 sequence (O14965 1-403): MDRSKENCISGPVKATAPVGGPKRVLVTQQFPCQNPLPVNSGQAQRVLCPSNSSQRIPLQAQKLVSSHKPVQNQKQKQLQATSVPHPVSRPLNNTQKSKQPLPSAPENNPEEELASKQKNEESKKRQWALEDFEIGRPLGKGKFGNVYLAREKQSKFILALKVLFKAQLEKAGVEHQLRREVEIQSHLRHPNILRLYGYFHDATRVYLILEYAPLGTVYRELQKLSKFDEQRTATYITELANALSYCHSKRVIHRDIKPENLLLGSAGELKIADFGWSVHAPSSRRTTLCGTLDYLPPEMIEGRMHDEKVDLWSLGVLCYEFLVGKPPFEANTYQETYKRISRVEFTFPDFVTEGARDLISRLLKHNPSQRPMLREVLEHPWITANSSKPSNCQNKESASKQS
The experiment in a line: SelectScreen in vitro kinase profiling, single point.

For a further data set, the target named is ROCK1 (Homo sapiens, UniProt Q13464). Description: SelectScreen additional single point analysis. To be noted: 10 μM.
A further data set deals with recombinant ROCK. The experiment in a line: In vitro ROCK activity assay (Cyclex Rho-kinase immunoassay). Format: biochemical. To be noted: FIG. 2A bar chart. The protocol:
A specific assay was used to evaluate the ability of the compounds of the invention to inhibit ROCK. Rho-kinase activity was determined using an immunoassay as recommended by the manufacturer (Cyclex Co., Ltd., Nagano, Japan). Briefly, […] samples containing 10 mUnit (1 Unit incorporates 1 nmol of phosphate into GST-MBS/MYPT1 per minute at 30° C.) of recombinant ROCK with or without the compounds of the invention were aliquoted into a 96-well plate (100 μl/well), pre-coated with threonine Rho-kinase phosphorylation substrate. After 30 min incubation at 30° C., the plate was washed three times with PBS then incubated with 100 μl/well of HRP conjugated anti-phospho-specific antibody for 1 h at room temperature. The amount of phosphorylated substrate was determined by adding 100 μl/well of substrate reagent for 10 min and the reaction was terminated by adding 100 μl/well of the stop solution. The absorbance was measured on a 96-well plate reader at 450 nm (Dynex Technologies, West Sussex, UK). Each data point was performed in triplicate and the assay was repeated twice.

Where [2] appears, read: additional single point analysis, 10 μM.

Chain of HGK (MAP4K4) (O95819 whole entry): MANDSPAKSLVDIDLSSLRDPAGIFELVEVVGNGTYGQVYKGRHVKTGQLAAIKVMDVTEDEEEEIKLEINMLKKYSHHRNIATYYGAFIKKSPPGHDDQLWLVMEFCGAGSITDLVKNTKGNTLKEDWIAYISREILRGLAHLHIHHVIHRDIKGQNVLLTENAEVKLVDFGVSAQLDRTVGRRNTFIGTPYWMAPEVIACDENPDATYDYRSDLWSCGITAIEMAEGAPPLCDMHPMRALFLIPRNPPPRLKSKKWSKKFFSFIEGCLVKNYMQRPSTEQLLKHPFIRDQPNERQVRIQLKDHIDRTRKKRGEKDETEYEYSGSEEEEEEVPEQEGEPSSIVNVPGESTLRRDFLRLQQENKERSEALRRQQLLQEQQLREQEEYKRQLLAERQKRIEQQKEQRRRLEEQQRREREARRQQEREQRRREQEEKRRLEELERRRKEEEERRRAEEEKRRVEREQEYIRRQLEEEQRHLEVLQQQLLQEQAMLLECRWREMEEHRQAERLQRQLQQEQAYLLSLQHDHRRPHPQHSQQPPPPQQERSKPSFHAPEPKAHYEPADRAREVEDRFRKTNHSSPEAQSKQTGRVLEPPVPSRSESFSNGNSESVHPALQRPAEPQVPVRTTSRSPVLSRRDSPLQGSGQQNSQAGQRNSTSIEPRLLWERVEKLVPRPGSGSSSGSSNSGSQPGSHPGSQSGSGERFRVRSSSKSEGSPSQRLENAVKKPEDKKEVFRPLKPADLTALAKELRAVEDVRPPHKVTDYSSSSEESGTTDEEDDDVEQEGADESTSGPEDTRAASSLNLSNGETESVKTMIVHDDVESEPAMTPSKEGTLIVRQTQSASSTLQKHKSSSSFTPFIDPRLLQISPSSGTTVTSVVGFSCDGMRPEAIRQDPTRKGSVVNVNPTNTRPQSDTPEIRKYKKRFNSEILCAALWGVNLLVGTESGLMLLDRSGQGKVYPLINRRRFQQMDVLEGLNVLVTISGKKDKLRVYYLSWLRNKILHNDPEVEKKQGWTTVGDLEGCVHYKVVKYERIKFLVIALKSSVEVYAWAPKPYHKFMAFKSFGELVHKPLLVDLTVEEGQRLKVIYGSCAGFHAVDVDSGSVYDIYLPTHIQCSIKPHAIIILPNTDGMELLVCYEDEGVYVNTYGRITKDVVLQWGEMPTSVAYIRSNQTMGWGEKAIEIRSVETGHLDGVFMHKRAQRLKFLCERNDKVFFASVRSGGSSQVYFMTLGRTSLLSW
Chain of p38 alpha (MAPK14) (Q16539 whole entry): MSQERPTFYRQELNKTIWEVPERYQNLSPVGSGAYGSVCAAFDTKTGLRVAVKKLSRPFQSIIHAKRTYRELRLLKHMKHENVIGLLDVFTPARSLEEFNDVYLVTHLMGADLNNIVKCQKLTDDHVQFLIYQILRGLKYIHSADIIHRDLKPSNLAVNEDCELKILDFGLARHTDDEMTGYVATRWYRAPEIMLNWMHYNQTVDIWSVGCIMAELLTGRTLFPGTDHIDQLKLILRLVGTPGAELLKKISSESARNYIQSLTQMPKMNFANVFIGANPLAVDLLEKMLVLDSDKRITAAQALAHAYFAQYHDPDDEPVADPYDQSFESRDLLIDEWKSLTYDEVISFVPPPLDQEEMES
Chain of ROCK1 (Q13464 whole entry): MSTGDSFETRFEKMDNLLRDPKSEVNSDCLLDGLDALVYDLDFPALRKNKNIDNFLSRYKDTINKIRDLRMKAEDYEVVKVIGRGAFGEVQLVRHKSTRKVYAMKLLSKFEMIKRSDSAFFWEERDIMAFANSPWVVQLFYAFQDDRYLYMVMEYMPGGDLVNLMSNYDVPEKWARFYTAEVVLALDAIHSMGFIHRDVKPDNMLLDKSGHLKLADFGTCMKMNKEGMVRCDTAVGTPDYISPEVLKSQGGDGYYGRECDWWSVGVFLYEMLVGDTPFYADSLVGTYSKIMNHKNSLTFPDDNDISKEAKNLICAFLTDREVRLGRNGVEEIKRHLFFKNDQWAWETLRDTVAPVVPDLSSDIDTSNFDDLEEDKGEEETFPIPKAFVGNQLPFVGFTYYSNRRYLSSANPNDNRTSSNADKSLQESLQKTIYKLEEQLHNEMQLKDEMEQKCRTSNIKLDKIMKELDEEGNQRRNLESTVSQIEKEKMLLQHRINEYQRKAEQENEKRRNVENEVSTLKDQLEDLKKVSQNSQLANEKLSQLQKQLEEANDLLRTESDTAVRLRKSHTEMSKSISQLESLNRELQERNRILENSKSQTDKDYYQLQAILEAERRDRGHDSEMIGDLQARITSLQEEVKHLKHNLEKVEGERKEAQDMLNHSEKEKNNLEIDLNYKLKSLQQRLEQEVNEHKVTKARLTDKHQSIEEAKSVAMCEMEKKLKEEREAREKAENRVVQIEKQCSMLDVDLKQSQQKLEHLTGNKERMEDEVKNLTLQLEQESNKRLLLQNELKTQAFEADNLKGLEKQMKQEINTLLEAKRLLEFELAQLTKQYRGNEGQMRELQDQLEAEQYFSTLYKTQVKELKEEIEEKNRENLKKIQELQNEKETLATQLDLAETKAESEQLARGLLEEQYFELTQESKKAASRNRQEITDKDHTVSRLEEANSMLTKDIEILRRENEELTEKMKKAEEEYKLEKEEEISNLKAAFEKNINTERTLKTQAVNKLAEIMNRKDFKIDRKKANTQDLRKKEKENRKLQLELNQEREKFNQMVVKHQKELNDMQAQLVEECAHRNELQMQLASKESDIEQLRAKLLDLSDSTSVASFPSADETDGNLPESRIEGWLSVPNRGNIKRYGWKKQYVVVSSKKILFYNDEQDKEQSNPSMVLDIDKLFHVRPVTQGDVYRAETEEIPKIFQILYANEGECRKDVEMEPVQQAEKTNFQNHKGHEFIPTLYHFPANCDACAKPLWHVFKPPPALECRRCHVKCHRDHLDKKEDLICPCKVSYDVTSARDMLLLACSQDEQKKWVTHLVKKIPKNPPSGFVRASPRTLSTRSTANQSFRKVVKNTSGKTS
Chain of ROCK2 (O75116 whole entry): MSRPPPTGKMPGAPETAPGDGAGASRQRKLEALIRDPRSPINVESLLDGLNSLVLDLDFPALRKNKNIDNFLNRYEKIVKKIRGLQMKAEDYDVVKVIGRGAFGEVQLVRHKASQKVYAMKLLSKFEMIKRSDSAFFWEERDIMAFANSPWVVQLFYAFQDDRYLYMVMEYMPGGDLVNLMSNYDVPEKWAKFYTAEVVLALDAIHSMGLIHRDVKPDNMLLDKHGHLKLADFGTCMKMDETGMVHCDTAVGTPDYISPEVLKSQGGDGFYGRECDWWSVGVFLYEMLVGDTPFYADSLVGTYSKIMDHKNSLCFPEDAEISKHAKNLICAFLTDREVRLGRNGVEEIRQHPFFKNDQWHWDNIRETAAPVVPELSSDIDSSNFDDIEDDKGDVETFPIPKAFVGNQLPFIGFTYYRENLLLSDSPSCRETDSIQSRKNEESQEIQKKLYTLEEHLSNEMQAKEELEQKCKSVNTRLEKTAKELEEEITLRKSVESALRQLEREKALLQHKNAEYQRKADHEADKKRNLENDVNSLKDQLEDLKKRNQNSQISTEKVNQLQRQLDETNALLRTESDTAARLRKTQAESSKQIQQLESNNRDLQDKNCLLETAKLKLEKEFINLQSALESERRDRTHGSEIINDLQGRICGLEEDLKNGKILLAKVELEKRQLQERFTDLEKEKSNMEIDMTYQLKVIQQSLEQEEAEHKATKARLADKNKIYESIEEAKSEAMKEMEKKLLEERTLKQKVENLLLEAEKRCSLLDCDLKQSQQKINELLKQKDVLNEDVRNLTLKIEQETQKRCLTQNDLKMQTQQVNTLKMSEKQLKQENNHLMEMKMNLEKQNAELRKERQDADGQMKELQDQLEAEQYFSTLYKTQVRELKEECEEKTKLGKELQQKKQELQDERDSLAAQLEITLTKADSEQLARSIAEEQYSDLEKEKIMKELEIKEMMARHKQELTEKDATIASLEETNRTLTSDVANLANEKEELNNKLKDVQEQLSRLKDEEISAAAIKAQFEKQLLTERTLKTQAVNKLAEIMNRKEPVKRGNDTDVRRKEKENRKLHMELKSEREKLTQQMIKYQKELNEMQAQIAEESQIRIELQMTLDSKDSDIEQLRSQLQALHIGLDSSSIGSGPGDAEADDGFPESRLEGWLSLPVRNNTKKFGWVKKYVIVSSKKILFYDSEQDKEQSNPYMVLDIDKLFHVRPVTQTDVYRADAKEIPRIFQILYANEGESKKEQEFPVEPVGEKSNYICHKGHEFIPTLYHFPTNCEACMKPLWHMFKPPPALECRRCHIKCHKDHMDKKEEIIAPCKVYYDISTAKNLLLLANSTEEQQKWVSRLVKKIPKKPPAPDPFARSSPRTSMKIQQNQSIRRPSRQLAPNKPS

For `CC(C)(C)OC(=O)NCc1ccc(C(=O)Nc2ccncc2)cc1` [YA1, 4-(Pyridin-4-ylcarbamoyl)benzylcarbamic acid tert-butyl ester], the “activity against ROCK2” value on ROCK2 was “less activity against ROCKs than YA2”. Also, the “activity against HGK” value on HGK (MAP4K4) (setting [2]) was “significant activity against p38, HGK and Aurora A”. The inhibition at 10 µM on HGK (MAP4K4) (read-out: inhibitory activity against HGK (MAP4K4)) turned out to be 63%; on p38 alpha (MAPK14) (read-out: inhibitory activity against p38 alpha (MAPK14)), 72%; at Aurora A (read-out: inhibitory activity against Aurora A) it was 44%. The “activity against p38” value on p38 alpha (MAPK14) (setting [2]) was “significant activity against p38, HGK and Aurora A”. Besides, the “cell cycle / apoptotic sub G1 population” value is “no evidence of alterations in cell cycle or the accumulation of an apoptotic sub G1 population” in data set [1] (polyclonal GEF16 cells, 10 μM, FIG. 3C); “no effect on the cell cycle and no apoptotic sub G1 population is seen” in data set [1] (single colony derived GEF16 cells, treated pre or post confluence). In addition, the “activity against Aurora A” value at Aurora A (setting [2]) was “significant activity against p38, HGK and Aurora A”. For the same compound, on ROCK1, the “activity against ROCK1” value is “less activity against ROCKs than YA2”. Further, the “ROCK inhibitory activity compared to Y27632” value in the data set on recombinant ROCK is recorded as “lower ROCK inhibitory activity; also recorded: significantly less activity against ROCK than did their structural analogue Y27632”.
